Assays:
[1] = Nonclinical studies of TP: delivery / PK and PD profile; format: in vivo
Source text: (§1) Treprostinil palmitil (TP) is a hexadecyl ester prodrug of treprostinil (TRE). In the lung, TP is hydrolyzed by esterases to TRE and hexadecanol.

[2] = Nonclinical studies of TP: conversion of prodrug to treprostinil; format: in vitro ADME; conditions: nonclinical (in vitro and in vivo)
Source text: as §1

[3] = Preclinical safety / toxicology of TP; format: in vivo; conditions: nonclinical
Source text: as §1

rodent model of PAH = experiment: Rodent model of PAH; format: in vivo; conditions: inhibits associated adverse pathology and pathophysiology
Source text: as §1

healthy adults = experiment: Phase I single-dose safety and tolerability study of TPIP in healthy adults; format: in vivo, human
Description: Specifically, in a Phase I safety, tolerability, and PK study, healthy adults were administered single doses of 112.5 μg, 225 μg, 450 μg, and 675 μg of a compound of Formula (II).

[4] = tested on: subjects with pulmonary hypertension, including pulmonary arterial hypertension; experiment: Phase 2 safety and efficacy study in subjects with pulmonary hypertension; format: in vivo, human
Description: In a Phase 2 safety and efficacy study, the following doses of were investigated in subjects with pulmonary hypertension, including pulmonary arterial hypertension: 80 μg, 160 μg, 240 μg, 320 μg, 400 μg, 480 μg, and 640 μg. In this study, patients were administered a starting dose of 80 μg of the TPIP and the dose was titrated up to 640 μg according to FIG. 2.

Compound: CCCCCCCCCCCCCCCCOC(=O)COc1cccc2c1C[C@H]1C[C@@H](O)[C@H](CC[C@@H](O)CCCCC)[C@H]1C2 [treprostinil palmitil]
- delivery of treprostinil [1]: sustained delivery of treprostinil to the lungs and systemic circulation
- conversion to treprostinil [2]: converted from the prodrug to the active drug, treprostinil
- preclinical safety [3]: did not demonstrate concerning preclinical safety or toxicological findings
- efficacy in PAH model (rodent model of PAH): efficacious in a rodent model of PAH
- serious or severe TEAEs (printed TEALs) (healthy adults; single doses 112.5, 225, 450, 675 μg): no serious or severe TEALs were observed
- safety and tolerability (healthy adults; single doses 112.5, 225, 450, 675 μg / highest doses tested): safe and well-tolerated
- tolerability ([4]; 80 μg to 640 μg, titrated): well tolerated
- tolerability of 640 μg ([4]; 640 μg, highest dose administered in a clinical trial): well tolerated
- efficacy at higher doses ([4]; higher doses): promising efficacy

Reference: patent US20260325546A1, “METHODS OF TREATMENT USING DRY POWDER COMPOSITIONS OF TREPROSTINIL PRODRUGS” (Insmed Incorporated, priority 2024, published 2026)
